Data from patent US20030104024A1, “Urea and nitrogen based compounds as feeding stimulants/aggregants and masking agents of unpalatable chemicals for subterranean termites” (priority 2000, published 2003).

How the values were obtained:
C. formosanus = settings: baits containing the termiticide; cited from earlier work
[1] = test system: Formosan subterranean termites; assay: two choice feeding experiment: blank bait matrix vs. matrix with neutral red and urea; assay type: in vivo, Coptotermes formosanus; settings: urea 0-1280 ppm added to matrix with 1,000 ppm neutral red; groups of 300 termites; 30 d; FIG. 1
Description: (§1) The basic formulation of the matrix was prepared the same day that the experiment was set up, as reported by Rojas et al. (U.S. patent application Ser. Nos. 09/294,499 and 09/625,940, ibid). The colorant used was neutral red (Product number 72210, Fluka Chemical Corp., Milwaukee, Wis.) at 1000 ppm.
Under a laminar flow hood, the sterile cellulose was weighed using a Oahus portable plus scale (Fisher Scientific, Pittsburgh, Pa.) into a sterile 600 ml glass beaker. The colorant was weighed using a Mettler Toledo balance (PB303, Fisher Scientific, Pittsburgh, Pa.) and added to the pre-weighed cellulose. The cellulose with the colorant were homogenized using a sterile stainless steel spatula.
The sterile liquid mixture was measured into a 50 ml sterile screw cap conical tube (Product number 62.547.004 PP, Sarstedt, Inc., Newton, N.C.) and the urea was added at each of the following doses: 0, 10, 20, 40, 80, 160, 320, 640, and 1280 ppm; then it was added to the colored cellulose to a 7:3 ratio, (liquid-urea:colored-cellulose) and mixed to homogenize. […]
One treatment dish and one control dish were placed in the center of the top dish, taking care that the holes were facing each other and at least 1 cm apart. […] Matrix consumption was measured 30 d after by removing the left over bait matrix from the dishes and weighed it using a Sartorius balance (BP 211D, VWR Scientific, Atlanta, Ga.). […]

Formosan termite = assay: choice test of the colorant (feeding deterrence); assay type: in vivo, Coptotermes formosanus; settings: neutral red at 1000 ppm in bait matrix
Description: as §1

Structure (SMILES)	suppression of large colonies (C. formosanus)	also measured
O=C(NC(=O)c1c(F)cccc1F)Nc1cc(Cl)c(OC(F)(F)C(F)F)c(Cl)c1 [hexaflumuron]	particularly effective	–
NC(N)=O [urea]	–	effect of urea on feeding deterrence induced by the colorant (consumption difference, control minus colored matrix) [1]: significantly affected the feeding deterrence induced by the colorant
Cc1cc2nc3ccc(N(C)C)cc3nc2cc1N.Cl [neutral red]	–	feeding deterrence to the Formosan termite (Formosan termite): moderately deterrent
O=C(NC(=O)c1c(F)cccc1F)Nc1ccc(Cl)cc1 [diflubenzuron]	particularly effective	–
